For eleven compounds, TGI and GI50 results are on record in PubChem BioAssay (NCI).

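Interpolation was linear, between the two tested concentrations surrounding the appropriate level; five concentrations were tested over 48 hours in 96-well plates. Here, GI50 denotes the concentration required for 50% inhibition of growth. TGI marks complete inhibition of growth.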

Experiment in all cases: DTP human tumour cell line panel, 48 h
Test [1] deals with EKVX NSCLC.
For test [2], the system named is SF-539 CNS.
Test [3] has as its system HOP-62 NSCLC.
The test system of test [4] is SK-OV-3 ovarian.
The test system of test [5] is NCI-H23 lung.
Test [6] has as its system ACHN renal.
In test [7] the test system is SNB-19 CNS.
Test [8] deals with A549 NSCLC.
Test [9] deals with HOP-92 NSCLC.
Test [10] has as its system SF-268 CNS.

The TGI is the concentration at which net growth stops. Higher therefore signals less potent growth arrest. With `CC1Cc2c(N)nc(N3CCOCC3)nc2NC1=O` (stereo unspecified), the TGI in test [1], in test [2], in test [3], in test [4], in test [5] and in test [6] was > 100 µM throughout. The TGI in test [7] and in test [8] was > 100 µM in each case.

As to `C[C@@H](NC1CCC[C@@H]1O)c1ccccc1` (stereo partly specified), the TGI is > 100 µM in test [1]; > 100000 nM in test [9]; > 100 µM in [3]; > 100 µM in test [4]; > 100 µM in test [6]; > 100 µM in test [7]. Also, the TGI in test [8] is > 100 µM.

As for `O=C(O)CCSC(=O)Nc1cccc([N+](=O)[O-])c1`, the TGI is > 100 µM in test [1]; > 100 µM in test [2]; > 100 µM in [3]; > 100 µM in [5]; 64.8 µM in [10]; > 100 µM in test [6]. The TGI in test [7] and in test [8] was > 100 µM each time.

Regarding `Cc1[nH]c2ccccc2c1C1CC(=O)NC1=O` (stereo unspecified), the TGI in test [1], in test [2], in [3], in [4], in test [5] and in test [6] was > 100 µM each time. Further, the TGI in test [8] was > 100 µM.

In the case of `Cc1ccc(NC(=O)CC/C(CC(=O)c2ccc(Cl)cc2)=N\NC(=O)C(=O)NN)cc1C`, the TGI in test [1], in test [2], in test [3], in test [4], in test [5] and in test [10] was > 100 µM in each case. For the same compound, the TGI in test [6], in test [7] and in [8] was > 100 µM in each case.

As to `CC(=O)O[C@H]1CCC2[C@@H]3CCC4Nc5c(cnn5-c5ccccc5)C[C@]4(C)C3CC[C@@]21C` (stereo partly specified), the TGI was 16.5 µM in [1]; 54.9 µM in [2]; 95.7 µM in test [3]; 42.4 µM in test [4]; 21.2 µM in test [5]; > 100 µM in test [10]. The figures for the TGI in test [6], in test [7] and in [8] were 48.1 µM, 41.9 µM and 68.7 µM, respectively.

For `S=P(c1ccccc1)(c1ccccc1)C1(C2(P(=S)(c3ccccc3)c3ccccc3)CC2)CC1`, the TGI in [1], in [2], in [3], in test [5], in test [10] and in [6] was > 100 µM throughout. Moreover, the TGI in [7] and in [8] was > 100 µM throughout.

Turning to `N#Cc1nn(C2OC(COC(=O)c3ccccc3)C(OC(=O)c3ccccc3)C2OC(=O)c2ccccc2)c2nc[nH]c(=O)c12` (stereo unspecified), the TGI in test [1], in test [2], in [3], in test [4], in [5] and in test [10] was > 100 µM in each case. In addition, the TGI in [6], in test [7] and in [8] was > 100 µM throughout.

Take `CCOC(=O)/C(C#N)=C\C=C1/C=CNC2=NCCN21`: the TGI in test [1], in [2], in test [3], in test [4], in test [5] and in [10] was > 100 µM in each case. For the same compound, the TGI in test [6], in test [7] and in test [8] was > 100 µM in each case.

A word on the GI50: it is the concentration giving 50% growth inhibition. As for `NCCCn1c2c(c3cc4c(cc3c1=O)OCO4)C(=O)c1ccccc1-2`, the GI50 is 842 nM in test [1]; 437 nM in [9]; 187 nM in test [3]; 10.5 µM in test [4]; 564 nM in test [5]; 3.75 µM in test [10]. Further, the values for the GI50 in test [6] and in test [7] were 119 nM and 4.19 µM, respectively. Further, the concentration for total growth inhibition (TGI) in [1] is 2.55 µM; in test [9], 2110 nM; in test [3], 0.729 µM; in test [4], > 100 µM; in test [5], 2.09 µM; in [10] it was 16.5 µM. Moreover, the values for the TGI in test [6] and in test [7] were 1.22 µM and > 100 µM, respectively.

Turning to `CC(Oc1ccc(OCC2CCCCC2)cc1)C(=O)O` (stereo unspecified), the TGI in test [2], in test [4], in [5], in test [10], in test [6] and in [8] was > 100 µM throughout.
